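1) Cells in 96-well plates. 2) Compound, 48 h, 5 concentrations. 3) Linear interpolation between surrounding doses. 4) Unreached endpoint = highest concentration. GI50 is the concentration that inhibits growth by half. TGI is the concentration that stops growth completely.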
Legend:
Assay in all cases: NCI-60 cell line screen, 48 h
HL-60(TB) leukemia = test system: HL-60(TB) leukemia
SF-539 CNS = test system: SF-539 CNS
HS 578T breast = test system: HS 578T breast
TK-10 renal = test system: TK-10 renal
MDA-MB-435 = test system: MDA-MB-435
NCI-H23 lung = test system: NCI-H23 lung
CAKI-1 renal = test system: CAKI-1 renal
M14 melanoma = test system: M14 melanoma
RPMI-8226 leukemia = test system: RPMI-8226 leukemia
OVCAR-3 ovarian = test system: OVCAR-3 ovarian
KM12 colon = test system: KM12 colon
NCI-H460 lung = test system: NCI-H460 lung
SNB-19 CNS = test system: SNB-19 CNS
HCT-116 colon = test system: HCT-116 colon
786-0 renal = test system: 786-0 renal
EKVX NSCLC = test system: EKVX NSCLC
SK-MEL-2 melanoma = test system: SK-MEL-2 melanoma
K-562 leukemia = test system: K-562 leukemia
NCI-H226 lung = test system: NCI-H226 lung
MOLT-4 leukemia = test system: MOLT-4 leukemia
NCI-H522 lung = test system: NCI-H522 lung
SK-OV-3 ovarian = test system: SK-OV-3 ovarian
OVCAR-5 ovarian = test system: OVCAR-5 ovarian
DU-145 prostate = test system: DU-145 prostate
U251 CNS = test system: U251 CNS
SN12C renal = test system: SN12C renal
LOX IMVI melanoma = test system: LOX IMVI melanoma
NCI/ADR-RES ovarian = test system: NCI/ADR-RES ovarian
OVCAR-4 ovarian = test system: OVCAR-4 ovarian
MDA-MB-231 breast = test system: MDA-MB-231 breast
SF-295 CNS = test system: SF-295 CNS
UACC-257 melanoma = test system: UACC-257 melanoma
HCC-2998 colon = test system: HCC-2998 colon
A549 NSCLC = test system: A549 NSCLC
SR leukemia = test system: SR leukemia
SK-MEL-5 melanoma = test system: SK-MEL-5 melanoma
HOP-62 NSCLC = test system: HOP-62 NSCLC
OVCAR-8 ovarian = test system: OVCAR-8 ovarian
BT-549 breast = test system: BT-549 breast
PC-3 prostate = test system: PC-3 prostate
HCT-15 colon = test system: HCT-15 colon
SNB-75 CNS = test system: SNB-75 CNS
MCF7 breast = test system: MCF7 breast
HT29 colon = test system: HT29 colon
A498 renal = test system: A498 renal
IGROV1 ovarian = test system: IGROV1 ovarian
RXF 393 renal = test system: RXF 393 renal
MALME-3M melanoma = test system: MALME-3M melanoma
SK-MEL-28 melanoma = test system: SK-MEL-28 melanoma
UO-31 renal = test system: UO-31 renal
ACHN renal = test system: ACHN renal
SF-268 CNS = test system: SF-268 CNS
HOP-92 NSCLC = test system: HOP-92 NSCLC
SW-620 colon = test system: SW-620 colon
T-47D breast = test system: T-47D breast
COLO 205 colon = test system: COLO 205 colon
CCRF-CEM leukemia = test system: CCRF-CEM leukemia
UACC-62 melanoma = test system: UACC-62 melanoma

Question: What does the source list for `Cc1cccc(Cc2cnc(NC(=O)CCCOc3ccc(Cl)cc3)s2)c1`?
Answer: GI50 (HL-60(TB) leukemia): 2.24 µM; TGI (HL-60(TB) leukemia): 5.1 µM; GI50 (SF-539 CNS): 5.13 µM; TGI (SF-539 CNS): > 100 µM; GI50 (HS 578T breast): 5.32 µM; TGI (HS 578T breast): > 100 µM; GI50 (TK-10 renal): > 100 µM; TGI (TK-10 renal): > 100 µM; GI50 (MDA-MB-435): 1.62 µM; TGI (MDA-MB-435): 4.32 µM; GI50 (NCI-H23 lung): 28 µM; TGI (NCI-H23 lung): > 100 µM; GI50 (CAKI-1 renal): 3.68 µM; TGI (CAKI-1 renal): > 100 µM; GI50 (M14 melanoma): 3.68 µM; TGI (M14 melanoma): > 100 µM; GI50 (RPMI-8226 leukemia): 4.23 µM; TGI (RPMI-8226 leukemia): > 100 µM; GI50 (OVCAR-3 ovarian): 3.4 µM; TGI (OVCAR-3 ovarian): > 100 µM; GI50 (KM12 colon): 4.53 µM; TGI (KM12 colon): > 100 µM; GI50 (NCI-H460 lung): 3.32 µM; TGI (NCI-H460 lung): > 100 µM; GI50 (SNB-19 CNS): > 100 µM; TGI (SNB-19 CNS): > 100 µM; GI50 (HCT-116 colon): 3.36 µM; TGI (HCT-116 colon): > 100 µM; GI50 (786-0 renal): 5.95 µM; TGI (786-0 renal): > 100 µM; GI50 (EKVX NSCLC): 45 µM; TGI (EKVX NSCLC): > 100 µM; GI50 (SK-MEL-2 melanoma): > 100 µM; TGI (SK-MEL-2 melanoma): > 100 µM; GI50 (K-562 leukemia): 3.84 µM; TGI (K-562 leukemia): > 100 µM; GI50 (NCI-H226 lung): 59.3 µM; TGI (NCI-H226 lung): > 100 µM; GI50 (MOLT-4 leukemia): 5.72 µM; TGI (MOLT-4 leukemia): > 100 µM; GI50 (NCI-H522 lung): 51.1 µM; TGI (NCI-H522 lung): > 100 µM; GI50 (SK-OV-3 ovarian): > 100 µM; TGI (SK-OV-3 ovarian): > 100 µM; GI50 (OVCAR-5 ovarian): 5.88 µM; TGI (OVCAR-5 ovarian): > 100 µM; GI50 (DU-145 prostate): 3.91 µM; TGI (DU-145 prostate): > 100 µM; GI50 (U251 CNS): 4.88 µM; TGI (U251 CNS): > 100 µM; GI50 (SN12C renal): 5.26 µM; TGI (SN12C renal): > 100 µM; GI50 (LOX IMVI melanoma): 6.8 µM; TGI (LOX IMVI melanoma): > 100 µM; GI50 (NCI/ADR-RES ovarian): 29.3 µM; TGI (NCI/ADR-RES ovarian): > 100 µM; GI50 (OVCAR-4 ovarian): 3.71 µM; TGI (OVCAR-4 ovarian): > 100 µM; GI50 (MDA-MB-231 breast): 21.2 µM; TGI (MDA-MB-231 breast): > 100 µM; GI50 (SF-295 CNS): 3.89 µM; TGI (SF-295 CNS): > 100 µM; GI50 (UACC-257 melanoma): 7.41 µM; TGI (UACC-257 melanoma): > 100 µM; GI50 (HCC-2998 colon): 9.46 µM; TGI (HCC-2998 colon): > 100 µM; GI50 (A549 NSCLC): 3.94 µM; TGI (A549 NSCLC): > 100 µM; GI50 (SR leukemia): 2.51 µM; TGI (SR leukemia): > 100 µM; GI50 (SK-MEL-5 melanoma): 3.69 µM; TGI (SK-MEL-5 melanoma): > 100 µM; GI50 (HOP-62 NSCLC): 5.57 µM; TGI (HOP-62 NSCLC): > 100 µM; GI50 (OVCAR-8 ovarian): 27.3 µM; TGI (OVCAR-8 ovarian): > 100 µM; GI50 (BT-549 breast): > 100 µM; TGI (BT-549 breast): > 100 µM; GI50 (PC-3 prostate): 4.58 µM; TGI (PC-3 prostate): > 100 µM; GI50 (HCT-15 colon): 3.56 µM; TGI (HCT-15 colon): > 100 µM; GI50 (SNB-75 CNS): 2.66 µM; TGI (SNB-75 CNS): > 100 µM; GI50 (MCF7 breast): 3.16 µM; TGI (MCF7 breast): > 100 µM; GI50 (HT29 colon): 3.49 µM; TGI (HT29 colon): > 100 µM; GI50 (A498 renal): 1.36 µM; TGI (A498 renal): 6.25 µM; GI50 (IGROV1 ovarian): 9.21 µM; TGI (IGROV1 ovarian): > 100 µM; GI50 (RXF 393 renal): 9.58 µM; TGI (RXF 393 renal): > 100 µM; GI50 (MALME-3M melanoma): 5.38 µM; TGI (MALME-3M melanoma): > 100 µM; GI50 (SK-MEL-28 melanoma): 37.2 µM; TGI (SK-MEL-28 melanoma): > 100 µM; GI50 (UO-31 renal): 4.52 µM; TGI (UO-31 renal): > 100 µM; GI50 (ACHN renal): 3.47 µM; TGI (ACHN renal): > 100 µM; GI50 (SF-268 CNS): > 100 µM; TGI (SF-268 CNS): > 100 µM; GI50 (HOP-92 NSCLC): 34.3 µM; TGI (HOP-92 NSCLC): > 100 µM; GI50 (SW-620 colon): 3.39 µM; TGI (SW-620 colon): > 100 µM; GI50 (T-47D breast): 5.82 µM; TGI (T-47D breast): > 100 µM; GI50 (COLO 205 colon): 4.46 µM; TGI (COLO 205 colon): > 100 µM; GI50 (CCRF-CEM leukemia): 3.68 µM; TGI (CCRF-CEM leukemia): > 100 µM; GI50 (UACC-62 melanoma): 9.45 µM; TGI (UACC-62 melanoma): > 100 µM

From PubChem BioAssay (NCI)
